In US10471059B2, “Compositions and methods of using tyrosine kinase inhibitors” (YALE UNIVERSITY, priority 2015, dated 2019):
“Also recorded” adds a separate entry of the source. Read-outs that look alike come from different tables or passages of the source. Marks after values point to notes of the source that are not given here.

How the values were obtained:
tumor incidence = settings: mice; cited from earlier work
[1] = system: Ptpn11^D61G/+ X WT breeder; assay: Progeny from prenatal dasatinib treated Ptpn11D61G/+ X WT breeder
Experimental: Vehicle-injected mice served as control.
Dasatinib was administered into pregnant mothers and amelioration of cardiac defects in NS mice was assessed. Dasatinib was administered at 0.1, 0.5 or 1.0 mg/kg daily interperitoneally into wild type pregnant mice intercrossed with NS mice, beginning at embryonic day 7 until postnatal day 9 (in nursing females). After postnatal day 10 (P10), dasatinib injections resumed directly into individual pups daily until 8-weeks (P56) after birth (FIG. 14a).

Ptpn11^D61G/+ mice [2] = assay: Heart weight and histology (Masson's trichrome) after postnatal dasatinib; type: in vivo; settings: NS mice
Experimental: (§1) FIG. 15, comprising FIG. 15a-15j, is a panel of images showing cardiomyopathy and cardiac fibrosis in Ptpn11^D61G/+ mice rescued by dasatinib. […] FIG. 15e is a graph showing relative expression of fibrosis marker gene, Col1a2. […] FIG. 15f is a graph showing relative expression of fibrosis marker gene, Col3a1. FIG. 15g is a graph showing relative expression of cardiac fetal gene, Myh6 (αMHC). FIG. 15h is a graph showing relative expression of cardiac fetal gene, Myh7 (βMHC). FIG. 15i is a graph showing relative expression of cardiac fetal gene, Anf. FIG. 15j is a graph showing relative expression of cardiac fetal gene, Bnp. The genes were measured by quantitative RT-PCR (n=6 for each group). […] (Two-way ANOVA test).

[3] = system: WT and Ptpn11^D61G/+ mice; settings: for % EF (ejection fraction) / % FS (fractional shortening) / IVS, d (Intraventricular septum wall thickness, diastole) / IVS, s (Intraventricular septum wall thickness, systole) / LV vol, d (left ventricle volume, diastole) / LV vol, s (left ventricle volume, systole) / LVID, d (left ventricular internal dimension, diastole) / LVID, s (left ventricular internal dimension, systole) / LVPW, d (left ventricular posterior wall thickness, diastole) / LVPW, s (left ventricular posterior wall thickness, systole): n = 8, Mean ± SEM;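 as to all read-outs here: echocardiography in isoflurane-anesthetized mice, M-mode tracings averaged over three to six heartbeats, FS derived from diastolic and systolic LVID, vehicle-injected mice as control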
Experimental: Echocardiographic Studies—Cardiac dimensions and function were analyzed by echocardiography using a Vevo 770 console, Mice were lightly anesthetized with inhaled isoflurane (0.2% in O2). All measurements were obtained from three to six consecutive cardiac cycles, and the averaged values used for analysis. Interventricular septum wall (IVS), left ventricular internal dimension (LVID) and left ventricular posterior wall thickness (LVPW) in both end-diastolic (d), end-systolic (s) were measured from the and M-mode tracings. Diastolic measurements were performed using the leading-edge method of the American Society of Echocardiography. For TM-mode measurements, left ventricular end-diastolic volume (LV vol,d) and end-systolic volume (LV vol,s) were calculated. Ejection fraction percentage (EF) was calculated as [(LVvol,d−LVvol,s)/VLvol,d]×100, and fractional shortening percentage was calculated as [(LVID,d−LVID,s)/LVID,d]×100.
Animal Handling—Ptpn11^D61G/+ mice were provided from Dr. Benjamin Neel (University of Toronto, Toronto) and were genotyped as described previously^9. Briefly, Ptpn11^D61G/+ male mice were crossed with wild type C75BL/6×SV 129 female mice and their offspring were genotyped by PCR and digestion with AgeI for the D61G allele. Dasatinib (Biovision) was suspended in vehicle (1% DMSO in phosphate buffer saline), For prenatal treatment, dasatinib was injected i.p. (0.1 mg/kg body weight) into pregnant mice daily, beginning on gestational day 7.5 (E7.5) continuing (in nursing females) until postnatal day 9. Vehicle-injected mice served as control. Beginning at P10, dasatinib or vehicle alone was injected (i.p.) directly into pups daily, until 8-weeks after birth. For postnatal treatment, dasatinib was injected (i.p.) into pups at P10, until 6-weeks after birth; injection was discontinued for 2-weeks.
Echocardiography—Mice were anesthetized in a sealed plastic chamber with 1% isofurane in oxygen until immobile, and then were transferred onto a heated procedure board (37° C.). Animal were kept anesthetized with 1% isoflurane supplied by a nose cone connected to the isoflurane vaporizer during the entire procedure. The scan head was placed on the chest of the mouse and stable image signals (both B mode and M mode) were acquired and data analyzed with Vevo 770 (VisualSonics). Systolic and distolic left ventricle peripheral wall thickness, chamber diameter and interventricular wall thickness were measured with M mode image. Percentage of ejection fraction (EF) and fractional shortening (FS) were calculated.

Ptpn11^D61G/+ mice [4] = assay: Quantitative RT-PCR of heart RNA, NS mice, postnatal dasatinib; type: in vivo; settings: P56
Experimental: as §1
RNA Extraction and Quantitative Real-Time PCR Analysis—RNA was isolated from mice heart using an RNeasy kit (Qiagen, CA) according to the manufacturer's instructions. A total of 1 μg RNA was reverse transcribed to generate cDNA using a reverse transcriptase PCR kit (Applied Biosystems, CA). Real-time quantitative PCR was carried out in triplicate using the Applied Biosystems 7500 Fast real-time PCR system and SYBR green gene expression master mix with following primer pairs.
All relative gene expression levels were analyzed using the ΔCT method and normalized to 18S rRNA expression.

[5] = cited from earlier work
[6] = system: WT and Ptpn11^D61G/+ mice; assay: Liver damage (H&E histology, serum ALT) after postnatal dasatinib; settings: postnatal 0.1 mg/kg/day; wild type or NS mice; monohydrate
Source text: All data present mean±SEM. *, p<0.05; ***, p<0.001. (n=7˜10 for each group; Two-way ANOVA test).
Histology—Heart, liver and spleen were isolated from vehicle- or dasatinib-treated wild type and NS mice. Tissues were fixed in 4% paraformaldehyde in phosphate-buffer saline (PBS), processed for paraffin sections and stained with hematoxylin and eosin (H&E) or Masson's Trichrome. Tissue images were obtained under bright field microscopy (Olympus BX51, Yale Liver Center).

[7] = prenatal 0.1 mg/kg i.p. daily from E7.5, Ptpn11D61G/+ mice, P42
[8] = prenatal 0.1 mg/kg i.p. daily from E7.5, WT mice, P42
[9] = prenatal 0.1 mg/kg i.p. daily from E7.5 continued to P56, Ptpn11D61G/+ mice, P56
[10] = prenatal 0.1 mg/kg i.p. daily from E7.5 continued to P56, WT mice, P56

SMILES: Cc1nc(Nc2ncc(C(=O)Nc3c(C)cccc3Cl)s2)cc(N2CCN(CCO)CC2)n1.O [Dasatinib, N-(2-chloro-6-methylphenyl)-2-[[6-[4-(2-hydroxyethyl)-1-piperazinyl]-2-methyl-4-pyrimidinyl]amino]-5-thiazole carboxamide monohydrate]
- dosage effective in preventing tumor incidence (tumor incidence): ~20 mg/kg
- adverse effects ([1]; mouse, in vivo, ip, 0.1 mg/kg): no observable adverse effects
- Dead pups ([1]; prenatal dasatinib 0.1 mg/kg, number of pups): 4
- embryonic lethality ([1]; prenatal treatment at 0.5 and 1.0 mg/kg/per day i.p.): embryonic lethality
- cardiac fibrosis at the histological level (Ptpn11^D61G/+ mice [2]; P56): markedly reduced
- pathologic cardiac phenotypes (heart weight, dilated cardiomyopathy, myofibrillar disorganization) (Ptpn11^D61G/+ mice [2]; P56, monohydrate): profound reversal; also recorded: rescued
- % EF (ejection fraction) [3, 7]: 62.62 ± 2.75 %
- % FS (fractional shortening) [3, 7]: 34.29 ± 2.09 %
- IVS, d (Intraventricular septum wall thickness, diastole) [3, 7]: 0.65 ± 0.06 mm
- IVS, s (Intraventricular septum wall thickness, systole) [3, 7]: 0.97 ± 0.10 mm
- LV vol, d (left ventricle volume, diastole) [3, 7]: 60.93 ± 3.75 mm^3
- LV vol, s (left ventricle volume, systole) [3, 7]: 24.21 ± 1.56 mm^3
- LVID, d (left ventricular internal dimension, diastole) [3, 7]: 3.61 ± 0.12 mm
- LVID, s (left ventricular internal dimension, systole) [3, 7]: 2.32 ± 0.12 mm
- LVPW, d (left ventricular posterior wall thickness, diastole) [3, 7]: 0.70 ± 0.04 mm
- LVPW, s (left ventricular posterior wall thickness, systole) [3, 7]: 1.12 ± 0.07 mm
- % EF (ejection fraction) [3, 8]: 64.24 ± 2.52%
- % FS (fractional shortening) [3, 8]: 34.70 ± 1.82%
- IVS, d (Intraventricular septum wall thickness, diastole) [3, 8]: 0.67 ± 0.04 mm
- IVS, s (Intraventricular septum wall thickness, systole) [3, 8]: 1.08 ± 0.09 mm
- LV vol, d (left ventricle volume, diastole) [3, 8]: 67.51 ± 2.54 mm^3
- LV vol, s (left ventricle volume, systole) [3, 8]: 22.26 ± 1.95 mm^3
- LVID, d (left ventricular internal dimension, diastole) [3, 8]: 3.93 ± 0.08 mm
- LVID, s (left ventricular internal dimension, systole) [3, 8]: 2.49 ± 0.09 mm
- LVPW, d (left ventricular posterior wall thickness, diastole) [3, 8]: 0.76 ± 0.05 mm
- LVPW, s (left ventricular posterior wall thickness, systole) [3, 8]: 1.13 ± 0.04 mm
- % EF (ejection fraction) [3, 9]: 51.83 ± 1.60%
- % FS (fractional shortening) [3, 9]: 26.22 ± 1.01%
- IVS, d (Intraventricular septum wall thickness, diastole) [3, 9]: 0.70 ± 0.03 mm
- IVS, s (Intraventricular septum wall thickness, systole) [3, 9]: 1.02 ± 0.05 mm
- LV vol, d (left ventricle volume, diastole) [3, 9]: 73.00 ± 3.42 mm^3
- LV vol, s (left ventricle volume, systole) [3, 9]: 37.43 ± 2.08 mm^3
- LVID, d (left ventricular internal dimension, diastole) [3, 9]: 4.06 ± 0.11 mm
- LVID, s (left ventricular internal dimension, systole) [3, 9]: 3.08 ± 0.07 mm
- LVPW, d (left ventricular posterior wall thickness, diastole) [3, 9]: 0.68 ± 0.02 mm
- LVPW, s (left ventricular posterior wall thickness, systole) [3, 9]: 0.93 ± 0.06 mm
- % EF (ejection fraction) [3, 10]: 50.96 ± 2.38 %
- % FS (fractional shortening) [3, 10]: 25.84 ± 1.47 %
- IVS, d (Intraventricular septum wall thickness, diastole) [3, 10]: 0.69 ± 0.04 mm
- IVS, s (Intraventricular septum wall thickness, systole) [3, 10]: 1.07 ± 0.05 mm
- LV vol, d (left ventricle volume, diastole) [3, 10]: 79.32 ± 1.22 mm^3
- LV vol, s (left ventricle volume, systole) [3, 10]: 40.34 ± 1.60*** mm^3
- LVID, d (left ventricular internal dimension, diastole) [3, 10]: 4.21 ± 0.07 mm
- LVID, s (left ventricular internal dimension, systole) [3, 10]: 3.04 ± 0.10 mm
- LVPW, d (left ventricular posterior wall thickness, diastole) [3, 10]: 0.71 ± 0.04 mm
- LVPW, s (left ventricular posterior wall thickness, systole) [3, 10]: 0.95 ± 0.05 mm
- cardiac function (EF and FS) ([3]; prenatal 0.1 mg/kg, NS mice, P42, monohydrate): improves cardiac function; also recorded: completely restored to wild type parameters; also recorded: complete restoration of cardiac function
- cardiac failure on continued administration ([3]; prenatal regimen continued an additional 2 weeks to P56, wild type and NS mice): induced cardiac failure
- Anp and Bnp mRNA expression (Ptpn11^D61G/+ mice [4]): completely rescued
- MYH6 expression (Ptpn11^D61G/+ mice [4]): equivalent level of MYH6 expression in wild type and NS mice
- MYH7 expression (Ptpn11^D61G/+ mice [4]): completely normalized
- mRNA expression of fibrotic genes Col1a2 and Col3a1 (Ptpn11^D61G/+ mice [4]): reduced mRNA expression levels
- dose of therapeutic effects in humans ([5]; humans): ~2 mg/kg
- equivalent dose in mice of the human therapeutic dose ([5]; mice equivalent): ~24 mg/kg
- liver damage [6]: no evidence of liver damage; also recorded: does not induce liver damage
